Results on 1 molecule are retold here after PMC12348863 (Molecules, 2025).

The conditions of data set [1]: unformulated CBD; cited from earlier work.
Data set [2] in a line: Water solubility analysis (dissolved CBD in deionised water, HPLC). Format: physicochemical. On the procedure:
The prepared CBD-GA complexes, in various molar ratios, were tested for water solubility. In a typical experiment, between 1.0 and 1.5 mg of the complex was accurately weighed and dissolved in 1 mL of deionised water (Merck Millipore, Burlington, MA, USA) under vigorous mixing. If necessary, an ultrasonic bath was employed to aid dissolution.
Following mixing, the solution was centrifuged for 3 min at 3000× g. The resulting supernatant was transferred to vials for HPLC analysis. The concentration of dissolved CBD was quantified using a chromatographic method with an Agilent 1260 Infinity HPLC system (Waldbronn, Germany). Further details are provided in Appendix A.4.
The concentration of CBD in dissolution and permeation test samples was assayed using an Agilent 1260 Infinity system with UV detection. The column in use was Luna C18(2) (Phenomenex, Torrance, CA, USA), with dimensions 150 mm × 3 mm, 3 µm particle size. The column flow rate was 0.8 mL/min at 37 °C. The elution was isocratic, with the mobile phase consisting of acetonitrile–water at a ratio of 31:9 (v/v), with 10 mM ammonium formate and 0.1% (v/v) formic acid added (without pH adjustment). The injection volume was 5 µL, and the run time was 5 min. The UV detector wavelength was set at 275 nm.

A short description of data set [3]: In vitro permeation (PAMPA) test. In kind it is in vitro ADME. To be noted: 159 µM CBD. (In general: The PAMPA barrier holds no transporters, so it reflects passive diffusion.)
Method: In vitro permeation (PAMPA) tests were performed to evaluate differences in permeation parameters between regular (lipophilic) CBD and the water-soluble CBD complex. Atenolol and metoprolol were included as control substances. The initial concentration of CBD in the donor medium was 159 µM, while the concentrations of atenolol and metoprolol were 500 µM each. The experiments were conducted using a 96-well PAMPA plate with PVDF filter membranes (Sigma-Aldrich). The donor medium consisted of 50 mM phosphate buffer (pH 6.5, Sigma-Aldrich) containing 5% (v/v) DMSO, with a volume of 300 µL per well. The acceptor medium used was Pion’s “acceptor sink buffer” (Billerica, MA, USA), added in a volume of 200 µL per well. The artificial membrane solution consisted of 1% (w/v) cholesterol (Merck, Darmstadt, Germany) dissolved in a 3:1 (v/v) mixture of dodecane and n-hexane. Prior to the experiment, 4 µL of this membrane solution was applied to each filter membrane. Each test compound was assessed in 12 replicates. The total duration of the experiment was 260 min. […] At the end of this experiment, both donor and acceptor solutions were analysed by HPLC. CBD concentrations were determined using HPLC with UV detection, according to the method described by Križman [39] […] Atenolol and metoprolol concentrations were analysed by HPLC with FL detection, following the protocol of Yilmaz et al. [40] […]

`C=C(C)[C@@H]1CCC(C)=C[C@H]1c1c(O)cc(CCCCC)cc1O` [pure CBD, Cannabidiol]: in data set [1], the aqueous solubility result was “less than 60 ng/mL”. In data set [2] (deionised water, supernatant after centrifugation, HPLC, read-out: CBD Concentration (water solubility)), the solubility was < 0.06 µg/mL. The “aqueous solubility, times lower than that of the water-soluble CBD complex” value in data set [2] (unformulated CBD versus water-soluble CBD complex) is “more than 400 times”. Moreover, the Papp at 260 min, 159 µM in data set [3] (donor 50 mM phosphate buffer pH 6.5 with 5% DMSO, 12 replicates, read-out: average permeability) worked out at 1.98 ×10⁻⁶ cm/s. For the same molecule, the “mass retention in the lipophilic membrane” value in data set [3] (donor pH 6.5 with 5% DMSO, 260 min, average) was found to be 84%.
